Read-outs that look alike come from different tables or passages of the source.
Assays:
[1] = system: NSCLC with ROS1 rearrangements; set-up: method as in PMID 28520527; conditions: cited from earlier work
[2] = system: ROS1-rearranged NSCLC; set-up: method as in PMID 31416808; conditions: 2/6, METROS trial ref 13; cited from earlier work
[3] = system: Lung cancer cell NCI-H2228; experiment: Growth inhibition of cancer cell lines: NCI-H2228; type: cell-based; conditions: Homo sapiens
[4] = system: Gastric cancer cell SNU-5; experiment: Growth inhibition of cancer cell lines: SNU-5; type: cell-based; conditions: Homo sapiens
[5] = system: ROS1-positive advanced NSCLC; set-up: method as in PMID 29596029; conditions: cited from earlier work
[6] = set-up: method as in PMID 31751012; conditions: cited from earlier work
[7] = system: Lung cancer cell NCI-H3122; experiment: Growth inhibition of cancer cell lines: NCI-H3122; type: cell-based; conditions: Homo sapiens
[8] = system: ROS1-rearranged NSCLC; set-up: method as in PMID 34511132; conditions: first-line, cited from earlier work
[9] = set-up: method as in PMID 25264305; conditions: cited from earlier work
[10] = system: ROS1 fusion-positive NSCLC; conditions: cited from earlier work
[11] = no radiotherapy within the preceding 6 months ref 21
[12] = radiotherapy within the preceding 6 months ref 21

## Cc1cc(Nc2ncc(Cl)c(Nc3ccccc3S(=O)(=O)C(C)C)n2)c(OC(C)C)cc1C1CCNCC1 [ceritinib]
[1]
  Intracranial ORR: 29%

## C[C@@H](Oc1cc(-c2cnn(C3CCNCC3)c2)cnc1N)c1c(Cl)ccc(F)c1Cl [crizotinib]
[2]
  Intracranial ORR: 33%
[3]
  IC50: 358 nM
[4]
  IC50: 29.1 nM
[5]; OO 12-01 study ref 15
  ORR by IRC: 71.7%
[5]
  DCR: 88.2%
  Median PFS: 15.9 months
  Rate of drug dose interruptions due to TRAEs: 22.8%
[6]
  Any grade elevated ALT: 14%
  Any grade elevated AST: 22%
  Grade III or higher elevated ALT: 4%
  Grade III or higher elevated AST: 2%
[7]
  IC50: 214 nM
[8]; non-CD74-ROS1 fusions ref 27
  Median PFS: 21.0 months
[8]; tumor harboring CD74-ROS1 ref 27
  Median PFS: 17.0 months
[9]
  Dizziness: 16%
  Dysgeusia: 18%
  Ophthalmological AEs: 82%
  Reduced neutrophil count: 12%

## CN1CCN(c2ccc(C(=O)Nc3n[nH]c4ccc(Cc5cc(F)cc(F)c5)cc34)c(NC3CCOCC3)c2)CC1 [entrectinib]
[10]
  DCR: 75.8%
  Intracranial ORR: 79.2%
  Median PFS: 15.7 months
[10]; measurable central nervous system lesions at baseline ref 21
  Median intracranial PFS: 12.0 months
[10]; [11]
  Intracranial ORR: 46.2%
  Intracranial PFS: 8.8 months
[10]; overall patient population ref 21
  ORR: 67.1%
[10]; patients who had brain metastases at baseline ref 21
  ORR: 62.5%
[10]; patients with CD74-ROS1 fusions ref 21
  ORR: 72.9%
[10]; [12]
  Intracranial ORR: 60%
  Intracranial PFS: 16.1 months
